According to patent publication US20240360411A1, “METHODS AND COMPOSITIONS FOR INDUCING FETAL HEMOGLOBIN, MODULATING ERYTHROID CELL LINEAGES, AND PERTURBING MEGAKARYOCYTE LINEAGES” (FLAGSHIP PIONEERING INNOVATIONS VI, LLC, priority 2021, published 2024):

How the values were obtained:
[1] = tested on: sickle cell patient; conditions: sickle cell patient treated with hydroxyurea; Mundee et al.; cited from earlier work
[2] = tested on: C57Bl/6J mice; assay: Carboplatin induced thrombocytopenia model (CIT), CBC and bone marrow flow cytometry; assay type: in vivo, mouse
Excerpt: Chemotherapy induced thrombocytopenia (CIT) was a major disease burden in cancer patients undergoing chemotherapy. CIT increases the risk of bleeding resulting in delay of chemotherapy and/or reduction in relative dose intensity (RDI), which has a major impact in overall outcomes to cancer treatment. Currently, there were no approved treatments besides platelet transfusions in severe CIT cases. Thrombopoietin (TPO) mimetics, such romiplostim, were being investigated as a possible new treatment to address CIT. Based on the ability to modulate megakaryocyte progenitors in vitro and healthy animals, murine models that replicate CIT were developed (Table 19.) To this end, the following chemotherapeutic compounds known to induced myelosuppression and thrombocytopenia in mouse and humans were selected to develop CIT models:
Carboplatin a cisplatin analog commonly used in the clinic to treat a diverse type of malignant tumors. Carboplatin works by cross-linking to DNA resulting in DNA damage and decreased tumor burden. In addition, carboplatin also leads to bone marrow myelosuppression including transient thrombocytopenia in both human and mice.
Healthy C57Bl/6J mice were treated with a single dose of carboplatin via intraperitoneal injection (60 or 100 mg/kg) (FIG. 16A). Complete blood count (CBC), specifically changes in platelet number were measured using a blood analyzer (Heska HT5) at baseline Day 0 (baseline), Day 9, Day 16 and Day 21. In addition, bone marrowwas harvested at 24 hrs, 48 hrs, 9 days and 21 days post-carboplatin injection to characterize changes in the hematopoietic stem cells compartment, and changes in megakaryocyte compartment. […] Analysis of the bone marrow hematopoietic compartments was performed using flow cytometry as described in Example 14.

[3] = single intraperitoneal dose, 60 or 100 mg/kg, day post-injection

SMILES	mean % F+ cells [1]	mean % HbF [1]	bone marrow hematopoietic compartments (early Mkps, mature megakaryocytes) ([2]; flow cytometry 24 hrs, 48 hrs, 9 days, 21 days post-carboplatin injection, FIG. 17A, 17B)	tolerability ([2]; single intraperitoneal dose, 60 or 100 mg/kg)	blood platelets (change in platelet number) ([2]; single intraperitoneal dose, 60 or 100 mg/kg, FIG. 16B)	full recovery of platelet number [2, 3]	nadir of blood platelets [2, 3]
NC(=O)NO [hydroxyurea]	54.1%±8.5%	15.8%±2.0%					
N.N.O=C([O-])C1(C(=O)[O-])CCC1.[Pt+2] [carboplatin]			dynamic loss and recovery of distinct populations	tolerated the treatment	decrease of blood platelets in a dose dependent manner	≤ 21 days	9 days
